Results reported in patent US20240391928A1, “COMPOSITIONS FOR THE TREATMENT OF FOOD AND CHEMICAL ADDICTION AND METHODS OF MAKING AND USING SAME” (Duke University, priority 2021, published 2024).

Legend:
hGHSR1a^A204E = hGHSR1a^A204E (Homo sapiens, UniProt Q92847, A204E)
Experimental: β-arr2 recruitment: In agonist and antagonist assays of NanoBiT-based β-arr2 recruitment, hGHSR1a^WT-Lg^BiT and ^SmBiT-β^WT were transiently co-transfected at a 1:1 ratio (250 μg each) into monolayers of HEK293/T cells on 6-well plates along with 2 μg of pcDNA3.1. For assays employing the Ala204Glu variant, hGHSR1a^A204E-Lg^BiT was transfected at 2×hGHSR1a^WT-Lg^BiT, as performed for iCa^2+ assays with hGHSR1a^A204E described above. For GHSR1a-β-arr2 saturation assays, a fixed amount of hGHSR1a^WT-Lg^BiT cDNA (250 μg) was transfected with 0, 62.5 (1:0.25), 125 (1:0.5), 250 (1:1), 500 (1:2), or 1000 (1:4) μg of ^SmBiTβ-arr^WT. The morning after transfection, media was exchanged and after 4-6 hours, cells were then plated on white 96-well, clear-bottomed assay plates at a density of 45,000 cells/well in opti-MEM supplemented with 2% FBS and antibiotic/antimycotic. The following morning, opti-MEM was removed and cells were incubated with 70-80 μL HBSS supplemented with 20 mM HEPES (pH 7.4) for 4 hours. Cells were then treated with 10 μL of coelenterazine H (5 μM final) for 15-20 minutes at room temperature. Cells were then stimulated with 10 μL of test compounds and 2 minutes later, luminescence was measured over 5 minutes, which encompassed the peak β-arr2 recruitment signal.

hGHSR1a^WT [1] = biological target: T1, hGHSR1a^WT (Homo sapiens, UniProt Q92847); assay: Fixed-cell ELISA GHSR1a internalization; assay type: cell-based; design: expressed in transfected cells; HEK293/S Gαq/11 KO and parental WT (iCa2+); conditions: 45 minutes at 37° C.
T1 sequence (Q92847 whole entry): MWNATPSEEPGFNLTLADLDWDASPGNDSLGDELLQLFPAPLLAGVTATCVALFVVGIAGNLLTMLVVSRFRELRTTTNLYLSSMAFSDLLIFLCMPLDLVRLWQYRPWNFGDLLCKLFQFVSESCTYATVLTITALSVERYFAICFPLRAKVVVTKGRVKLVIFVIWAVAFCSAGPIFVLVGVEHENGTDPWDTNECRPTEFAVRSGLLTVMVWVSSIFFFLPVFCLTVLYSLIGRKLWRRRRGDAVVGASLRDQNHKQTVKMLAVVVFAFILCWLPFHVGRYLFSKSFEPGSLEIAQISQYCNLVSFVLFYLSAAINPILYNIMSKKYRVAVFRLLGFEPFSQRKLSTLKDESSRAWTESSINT
Experimental: Chemiluminescent Fixed-Cell ELISA. […] The next morning, media was removed and cells were serum starved with 90 μL of opti-MEM (containing no serum) for 2-3 hours at 37° C. Cells were then stimulated with 10× test compounds (diluted in serum-free opti-MEM) for 45 minutes at 37° C. in a humidified incubator. After 45 minutes, cells were fixed with 4% paraformaldehyde for 15 minutes (RT). Fixed cells were then washed three times with PBS (pH 7.4, Gibco) and blocked with fish gelatin in TBS (Rockland, Gilbertsville, PA) for 45 minutes. Cells were then incubated with a rabbit, horseradish peroxidase (HRP)-conjugated anti-HA antibody (1:2, 500; Novus Biologicals, Littleton, CO) for 1 hour (RT). […] The average luminescence was used and the data for each ligand were normalized its corresponding vehicle treatment conditions.

hGHSR1a^WT [2] = biological target: T1, hGHSR1a^WT; assay: Gαq-dependent intracellular Ca2+ mobilization (iCa2+, miAeq); assay type: cell-based; design: HEK293/T (transient); HEK293S Gαq knockout (transient, NanoBiT Gαq)
Experimental: Gαq-Dependent Intracellular Ca^2+ Mobilization. […] Cells were split into and seeded into 10 cm dishes without antibiotic selection and grown to confluency overnight. The next morning, cells were serum starved in 10 mL of clear opti-MEM (supplemented with L-glutamine and HEPES; Gibco, Waltham, MA) for 3-4 hours in a 37° C. incubator with 5% CO2. Then, 25 μL of coelenterazine H (NanoLight Technology, Pinetop, AZ) was added to each 10 mL dish and incubated for another 1-2 hours. For antagonist assays, test compounds were either added directly to the media in 10 cm dishes, or cells were collected by gentle washing/trituration and plated onto white, clear-bottomed 96-well plates for 30 minutes—1 hour. Once the coelenterazine H (or antagonist) incubation was complete, cells were harvested from the 10 cm dish by gentle washing/trituration and collected in a 15 mL conical tube. Cell suspensions were then immediately subjected to assay by injecting cells onto a white, clear-bottomed 96-well plate containing 2× test compounds. Luminescence was read without delay and for 10 seconds per well. To control for cell number variability, cells were lysed in 2× lysis buffer (100 mM CaCl2+0.2% Triton-X) immediately following the assay. The max ligand-induced response (Ca^2+ mobilization: net-miAeq) over 10 seconds was normalized by dividing the ligand-induced luminescence counts (L-miAeq) by the ligand-induced luminescence counts (L-MiAeq) plus the luminescence measured upon cell lysis (Lysis-miAeq). Relative, lysis-normalized data were then normalized to the appropriate control/reference condition.
(§1) For experiments with WT and Gt KO HEK293/S cells, […] of hGHSR1a^WT, 10 μg of miAEQ, and 2.5 μg of pcDNA3.1 was transiently transfected into 10 cm dishes and incubated overnight. […] Twenty-four hours later, experiments proceeded in accordance with the procedures described above. To control for any possible kinetic differences in genetically modified cell lines or GHSR1a variants, the average ligand-induced response over 10 seconds was calculated, then normalized by dividing the L-miAeq by the L-miAeq plus the Lysis-miAeq and normalized to the appropriate control/reference condition.

hGHSR1a^WT-RLucII = biological target: T2, hGHSR1a^WT-RLucII (Homo sapiens, UniProt Q92847); assay: Bystander BRET internalization (MyrPalm-Venus); assay type: cell-based; conditions: over 60 minutes
T2 construct: expressed in transfected cells; host or cells: HEK293/T, transient
T2 sequence (Q92847 whole entry): as above
Experimental: Bystander BRET (bBRET). hGHSR1a^WT-RLucII and plasma membrane marker, MyrPalm^mVenus, or the early endosomal marker, 2×-FYVE^mVenus, was transiently co-transfected in HEK293/T cells at a ratio of 1:5 or 1:12.5, respectively. […] Plates were then read by a Mithras 940 plate reader every 5 minutes over 1 hour (MyrPalm^mVenus) or 2 hours (2×FYVE^mVenus) to determine a BRET ratios. To generate CR curves, the average net BRET over 60 minutes post-treatment was used.

human GHSR1a^WT (Gαq) = human GHSR1a^WT (Gαq) (Homo sapiens, UniProt Q92847); assay: NanoBiT Gαq dissociation/activation; assay type: cell-based; design: HEK293/T (transient); HEK293S Gαq knockout (transient, NanoBiT Gαq)
Sequence of human GHSR1a^WT (Gαq) (Q92847 whole entry): as above

GHSR1a^E197A = biological target: T3, GHSR1a^E197A (Homo sapiens, UniProt Q92847, E197A); assay: iCa2+ at E197A mutant; assay type: cell-based
T3 construct: expressed in transfected cells; host or cells: HEK293/T
T3 sequence (Q92847 whole entry E197A): as the sequence (Q92847 whole entry) above, with E197A counted along it
Experimental: as §1

GPCRome (320 receptors) = assay: PRESTO-Tango GPCRome β-arr2 recruitment screen, other receptors; assay type: cell-based; conditions: N8279 1 μM; hit >3-fold
Experimental: Hits were defined as >3-fold activation above baseline. […] The assay quality was assessed by plotting duplicate, independent trial averages (derived from 4 independent wells) for each receptor as a point (X,Y). The corresponding plot of points for an ideal assay were fit by a regression line with the slope=1.

GHSR1a^N305A = biological target: T4, GHSR1a^N305A (Homo sapiens, UniProt Q92847, N305A); assay: TRUPATH Gαq dissociation at N305A mutant; assay type: cell-based
T4 construct: expressed in transfected cells; host or cells: HEK293/T
T4 sequence (Q92847 whole entry N305A): as the sequence (Q92847 whole entry) above, with N305A counted along it

[3] = biological target: T5, hGHSR1a^WT-RLucII / mVenus-β-arr2 (Homo sapiens, UniProt Q92847); assay: BRET β-arr2 recruitment; assay type: cell-based
T5 construct: expressed in transfected cells; host or cells: HEK293/T, transient
T5 sequence (Q92847 whole entry): as the sequence (Q92847 whole entry) above
T5 sequence (P32121 whole entry partner): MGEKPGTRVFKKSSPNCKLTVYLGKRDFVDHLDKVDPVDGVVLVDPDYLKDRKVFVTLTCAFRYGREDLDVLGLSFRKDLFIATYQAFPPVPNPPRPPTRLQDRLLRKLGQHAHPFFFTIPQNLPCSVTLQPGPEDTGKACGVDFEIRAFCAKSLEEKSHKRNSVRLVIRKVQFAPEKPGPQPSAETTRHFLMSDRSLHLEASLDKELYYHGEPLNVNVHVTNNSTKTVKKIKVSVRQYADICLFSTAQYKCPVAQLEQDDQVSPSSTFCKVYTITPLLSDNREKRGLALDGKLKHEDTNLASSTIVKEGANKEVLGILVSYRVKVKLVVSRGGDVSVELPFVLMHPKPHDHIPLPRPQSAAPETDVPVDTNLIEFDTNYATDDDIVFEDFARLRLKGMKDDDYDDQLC
Experimental: The morning after transfection, media was exchanged and after 4-6 hours, cells were then plated on white 96-well, clear-bottomed assay plates at a density of 45,000 cells/well in opti-MEM supplemented with 2% FBS and antibiotic/antimycotic. The following morning, opti-MEM was removed and cells were incubated with 70-80 μL HBSS supplemented with 20 mM HEPES (pH 7.4) for 4 hours. Cells were then treated with 10 μL of coelenterazine H (5 μM final) for 5-10 minutes at room temperature.

Sequence of hGHSR1a^A204E (Q92847 whole entry A204E): as the sequence (Q92847 whole entry) above, with A204E counted along it
Sequence of hGHSR1a^A204E (P32121 whole entry partner): as the sequence (P32121 whole entry partner) above

Question: Which results are given for `COc1ccc(C(=O)c2c(C(=O)NCCCN(C)C)oc3ccc(Cl)cc3c2=O)cc1OC` [Example N8279, 6-Chloro-3-(3,4-dimethoxybenzoyl)-N-(3-(dimethylamino)propyl)-4-oxo-4H-chromene-2-carboxamide]?
Answer: Emax (hGHSR1a^A204E): ~35%; internalization efficacy reduction relative to ghrelin (ELISA) (hGHSR1a^WT [1]): ~30%; internalization potency reduction relative to ghrelin (ELISA) (hGHSR1a^WT [1]): 24 fold; iCa2+ EC50, fold more potent than own GHSR1a binding IC50 (hGHSR1a^WT [2]): 41 fold; iCa2+ potency, fold less potent than L585 (hGHSR1a^WT [2]): 3.4 fold; iCa2+ potency, fold less potent than MK-0677 (hGHSR1a^WT [2]): 5.3 fold; iCa2+ potency, fold more potent than ghrelin (hGHSR1a^WT [2]): 8.9 fold; increase in ghrelin's iCa2+ potency by N8279 (hGHSR1a^WT [2]; N8279 10 μM, concomitant): ~3 fold; modulation of ghrelin-induced iCa2+ in words (hGHSR1a^WT [2]; concomitant N8279): weak ago-PAM activity; iCa2+ efficacy in words (hGHSR1a^WT [2]; relative to ghrelin): full agonist; internalization efficacy attenuation relative to ghrelin (bBRET MyrPalm) (hGHSR1a^WT-RLucII): ~20%; internalization potency reduction relative to ghrelin (bBRET MyrPalm) (hGHSR1a^WT-RLucII): 32 fold; Gαq activation Emax (NanoBiT) (human GHSR1a^WT (Gαq)): 118.3±9.8; iCa2+ potency reduction at GHSR1a^E197A (GHSR1a^E197A): ~3 fold; activation above baseline at any other GPCR (GPCRome (320 receptors)): ≤ 3 fold; Gαq dissociation at GHSR1a^N305A in words (GHSR1a^N305A): reduced dramatically; BRET β-arr2 recruitment, fold less potent than ghrelin [3]: ~100 fold
